Where “and” joins values, the source holds several entries; their conditions need not be identical. Equal entries are not always repeated. Toxic doses and inconclusive results are not listed. No stated cut-off is given here; in the data, active means T/C of 150% or more; inactive means T/C below 125%.
Test system: L1210 leukemia ip in BDF1 mice, survival T/C
Experiment: NCI In Vivo Anticancer Drug Screen. Data for tumor model L1210 Leukemia (intraperitoneal) in B6D2F1 (BDF1) mice
Details: endpoint: mean survival time, higher = longer survival
Procedure, shortened: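 Survival endpoint. Drug-treated group vs vehicle group, expressed as T divided by C. Tumor passaged by transplantation.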

[1] = dose: 100.0 mg/kg/injection, schedule: Q04DX003 (ip), vehicle: saline with Tween-80
[2] = dose: 200.0 mg/kg/injection, schedule: Q04DX003 (ip), vehicle: saline with Tween-80
[3] = dose: 400.0 mg/kg/injection, schedule: Q04DX003 (ip), vehicle: saline with Tween-80
[4] = dose: 100.0 mg/kg/injection, schedule: Q01DX001 (ip), vehicle: saline
[5] = dose: 200.0 mg/kg/injection, schedule: Q01DX001 (ip), vehicle: saline
[6] = dose: 50.0 mg/kg/injection, schedule: Q01DX009 (ip), vehicle: saline

Measured: T/C

CON1C(=O)C2(CCCCC2)C2=NOC3C(Br)CCCC231 (centres undefined)
inactive: dose: 100.0 mg/kg/injection, schedule: Q01DX001 (ip), vehicle: saline with Tween-80 92 % of control | [1] 106 % of control | dose: 200.0 mg/kg/injection, schedule: Q01DX001 (ip), vehicle: saline with Tween-80 95 % of control | [2] 97 % of control | dose: 400.0 mg/kg/injection, schedule: Q01DX001 (ip), vehicle: saline with Tween-80 95 % of control | [3] 95 % of control

CCOP(=O)(CCO)OCC
inactive: dose: 50.0 mg/kg/injection, schedule: Q01DX005 (ip), vehicle: saline 106 % of control | dose: 100.0 mg/kg/injection, schedule: Q01DX005 (ip), vehicle: saline 106 % of control | dose: 200.0 mg/kg/injection, schedule: Q01DX005 (ip), vehicle: saline 95 % of control | dose: 400.0 mg/kg/injection, schedule: Q01DX005 (ip), vehicle: saline 104 % of control

CN1CCC(CN2c3ccccc3Sc3ccccc32)CC1
inactive: dose: 6.25 mg/kg/injection, schedule: Q01DX009 (ip), vehicle: saline with Tween-80 93 % of control | dose: 12.5 mg/kg/injection, schedule: Q01DX009 (ip), vehicle: saline with Tween-80 93 % of control | dose: 15.0 mg/kg/injection, schedule: Q01DX Z (ip), vehicle: methylcellulose (MC) 104 % of control | dose: 25.0 mg/kg/injection, schedule: Q01DX009 (ip), vehicle: saline with Tween-80 93 % of control | dose: 25.0 mg/kg/injection, schedule: Q04DX003 (ip), vehicle: saline 108 % of control | dose: 30.0 mg/kg/injection, schedule: Q01DX Z (ip), vehicle: methylcellulose (MC) 108 % of control | dose: 45.0 mg/kg/injection, schedule: Q01DX Z (ip), vehicle: methylcellulose (MC) 96 % of control | dose: 50.0 mg/kg/injection, schedule: Q04DX003 (ip), vehicle: saline 100 % of control and 109 % of control | [4] 103 % of control | dose: 100.0 mg/kg/injection, schedule: Q04DX003 (ip), vehicle: saline 97 % of control | [5] 102 % of control | dose: 200.0 mg/kg/injection, schedule: Q04DX003 (ip), vehicle: saline 106 % of control and 108 % of control | dose: 400.0 mg/kg/injection, schedule: Q04DX003 (ip), vehicle: saline 97 % of control

Cc1cccc(C(=O)[O][Pb]([CH3])([CH3])[CH3])c1
inactive: dose: 12.5 mg/kg/injection, schedule: Q04DX002 (ip), vehicle: Klucel (hydroxypropylcellulose) (HPC) 100 % of control

Nc1ncnc2c1ncn2C1OC(CF)C(O)C1O (centres undefined)
inactive: [6] 101 % of control | dose: 100.0 mg/kg/injection, schedule: Q01DX009 (ip), vehicle: saline 100 % of control | dose: 200.0 mg/kg/injection, schedule: Q01DX009 (ip), vehicle: saline 114 % of control

BrCCOCCBr
inactive: dose: 25.0 mg/kg/injection, schedule: Q01DX009 (ip), vehicle: other 97 % of control | dose: 50.0 mg/kg/injection, schedule: Q01DX009 (ip), vehicle: other 92 % of control | dose: 100.0 mg/kg/injection, schedule: Q01DX009 (ip), vehicle: other 95 % of control

C[S+](C)c1ccccc1C(C)(C)CC(=O)O
inactive: [4] 103 % of control | [5] 98 % of control | dose: 400.0 mg/kg/injection, schedule: Q01DX001 (ip), vehicle: saline 110 % of control

CCCC(=O)Nc1ccc(C(=O)OCC)cc1
inactive: dose: 100.0 mg/kg/injection, schedule: Q04DX002 (ip), vehicle: saline 93 % of control | dose: 200.0 mg/kg/injection, schedule: Q04DX002 (ip), vehicle: saline 100 % of control | dose: 400.0 mg/kg/injection, schedule: Q04DX002 (ip), vehicle: saline 107 % of control

O=C(Nc1ccc([N+](=O)[O-])cc1)Nc1ccc([N+](=O)[O-])c(C(F)(F)F)c1
inactive: dose: 12.5 mg/kg/injection, schedule: Q01DX009 (ip), vehicle: saline 87 % of control | dose: 15.0 mg/kg/injection, schedule: Q01DX015 (ip), vehicle: saline 97 % of control | dose: 25.0 mg/kg/injection, schedule: Q01DX009 (ip), vehicle: saline 90 % of control | dose: 25.0 mg/kg/injection, schedule: Q04DX003 (ip), vehicle: acetone 86 % of control | dose: 30.0 mg/kg/injection, schedule: Q01DX015 (ip), vehicle: saline 94 % of control | [6] 90 % of control | dose: 50.0 mg/kg/injection, schedule: Q04DX003 (ip), vehicle: acetone 88 % of control | dose: 60.0 mg/kg/injection, schedule: Q01DX015 (ip), vehicle: saline 92 % of control | dose: 75.0 mg/kg/injection, schedule: Q01DX009 (ip), vehicle: saline with Tween-80 102 % of control | [4] 94 % of control | dose: 115.0 mg/kg/injection, schedule: Q01DX009 (ip), vehicle: saline with Tween-80 100 % of control | dose: 120.0 mg/kg/injection, schedule: Q01DX015 (ip), vehicle: saline 90 % of control

CC(c1ccccc1O)C1CCCCC1N=O (centres undefined)
inactive: dose: 100.0 mg/kg/injection, schedule: Q04DX002 (ip), vehicle: Klucel (hydroxypropylcellulose) (HPC) 105 % of control | dose: 200.0 mg/kg/injection, schedule: Q04DX002 (ip), vehicle: Klucel (hydroxypropylcellulose) (HPC) 102 % of control | dose: 400.0 mg/kg/injection, schedule: Q04DX002 (ip), vehicle: Klucel (hydroxypropylcellulose) (HPC) 98 % of control

Oc1ccc2ccccc2c1N=Nc1ccc(Cl)cc1
inactive: dose: 12.5 mg/kg/injection, schedule: Q01DX015 (ip), vehicle: saline 104 % of control | dose: 25.0 mg/kg/injection, schedule: Q01DX015 (ip), vehicle: saline 106 % of control | dose: 50.0 mg/kg/injection, schedule: Q01DX015 (ip), vehicle: saline 106 % of control | dose: 100.0 mg/kg/injection, schedule: Q01DX009 (ip), vehicle: carboxymethylcellulose (CMC) 87 % of control | dose: 100.0 mg/kg/injection, schedule: Q01DX015 (ip), vehicle: saline 98 % of control | dose: 100.0 mg/kg/injection, schedule: Q04DX003 (ip), vehicle: acetone 98 % of control | dose: 200.0 mg/kg/injection, schedule: Q01DX009 (ip), vehicle: carboxymethylcellulose (CMC) 87 % of control | dose: 200.0 mg/kg/injection, schedule: Q01DX015 (ip), vehicle: saline 95 % of control | dose: 200.0 mg/kg/injection, schedule: Q04DX003 (ip), vehicle: acetone 94 % of control | dose: 400.0 mg/kg/injection, schedule: Q01DX015 (ip), vehicle: saline 90 % of control | dose: 400.0 mg/kg/injection, schedule: Q04DX003 (ip), vehicle: acetone 88 % of control | dose: 800.0 mg/kg/injection, schedule: Q01DX015 (ip), vehicle: saline 96 % of control | dose: 1600.0 mg/kg/injection, schedule: Q01DX015 (ip), vehicle: saline 89 % of control

CC1=CC2=NC(=O)C(c3ccccc3)C(=O)N2C=C1 (centres undefined)
inactive: dose: 100.0 mg/kg/injection, schedule: Q01DX009 (ip), vehicle: Klucel (hydroxypropylcellulose) (HPC) 90 % of control | dose: 100.0 mg/kg/injection, schedule: Q04DX003 (ip), vehicle: Klucel (hydroxypropylcellulose) (HPC) 90 % of control | dose: 200.0 mg/kg/injection, schedule: Q01DX009 (ip), vehicle: Klucel (hydroxypropylcellulose) (HPC) 100 % of control | dose: 200.0 mg/kg/injection, schedule: Q04DX003 (ip), vehicle: Klucel (hydroxypropylcellulose) (HPC) 103 % of control | dose: 400.0 mg/kg/injection, schedule: Q01DX009 (ip), vehicle: Klucel (hydroxypropylcellulose) (HPC) 86 % of control | dose: 400.0 mg/kg/injection, schedule: Q04DX003 (ip), vehicle: Klucel (hydroxypropylcellulose) (HPC) 97 % of control

Cc1ccc(S(=O)(=O)Nc2ccc3ncsc3c2[N+](=O)[O-])cc1
inactive: dose: 100.0 mg/kg/injection, schedule: Q01DX009 (ip), vehicle: saline with Tween-80 108 % of control | [1] 97 % of control | dose: 200.0 mg/kg/injection, schedule: Q01DX009 (ip), vehicle: saline with Tween-80 93 % of control | [2] 102 % of control | dose: 400.0 mg/kg/injection, schedule: Q01DX009 (ip), vehicle: saline with Tween-80 103 % of control | [3] 102 % of control

CN(C)[Se](=O)Cl (centres undefined)
inactive: dose: 12.5 mg/kg/injection, schedule: Q04DX002 (ip), vehicle: saline with Tween-80 100 % of control | dose: 25.0 mg/kg/injection, schedule: Q04DX002 (ip), vehicle: saline with Tween-80 110 % of control

CCC(CC)C1CC[N-]CC1.CCC(CC)C1CC[N-]CC1.N#C[S-].N#C[S-].[Cu]
inactive: dose: 75.0 mg/kg/injection, schedule: Q01DX001 (ip), vehicle: saline 123 % of control

Reference: PubChem BioAssay AID248 (DTP/NCI, 2004)
